In the supplement of paper PMC10307832:

Tests used:
Experiment in all cases: relative viability (nuclei count vs DMSO), 5 days (fraction); higher = more cells survive
[1] = compound: CN(C/C=C/C1=CC=C(C=C1)Cl)CC2=CC=CC=C2N(CCO)S(=O)(=O)C3=CC=C(C=C3)OC [KN-93] + CS(=O)(=O)CCNCc1ccc(-c2ccc3ncnc(Nc4ccc(OCc5cccc(F)c5)c(Cl)c4)c3c2)o1 [Lapatinib] (partner 2 µM)
How it was run: (§1)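 Five library-drug doses in √10 steps were combined with a fixed anchor-drug dose, or a single drug was given alone, by pin tool to lung cancer cell lines in 1536-well plates the day after seeding. Nuclei were stained and counted after 5 days. Relative viability is the nuclei count in treated wells over that in vehicle wells, taken as the median of duplicate plates.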

[2] = compound: CN(C/C=C/C1=CC=C(C=C1)Cl)CC2=CC=CC=C2N(CCO)S(=O)(=O)C3=CC=C(C=C3)OC [KN-93] + CS(=O)(=O)N1CCN(Cc2cc3nc(-c4cccc5[nH]ncc45)nc(N4CCOCC4)c3s2)CC1 [Pictilisib] (partner 1 µM)
How it was run: as §1

[3] = compound: CN(C/C=C/C1=CC=C(C=C1)Cl)CC2=CC=CC=C2N(CCO)S(=O)(=O)C3=CC=C(C=C3)OC [KN-93] + Cc1nc(NC(=O)N2CCC[C@H]2C(N)=O)sc1-c1ccnc(C(C)(C)C(F)(F)F)c1 [Alpelisib] (partner 2 µM)
How it was run: as §1

[4] = compound: CN(C/C=C/C1=CC=C(C=C1)Cl)CC2=CC=CC=C2N(CCO)S(=O)(=O)C3=CC=C(C=C3)OC [KN-93] + Cc1nc(Nc2ncc(C(=O)Nc3c(C)cccc3Cl)s2)cc(N2CCN(CCO)CC2)n1 [Dasatinib] (partner 0.075 µM)
How it was run: as §1

[5] = compound: CN(C/C=C/C1=CC=C(C=C1)Cl)CC2=CC=CC=C2N(CCO)S(=O)(=O)C3=CC=C(C=C3)OC [KN-93] + N=C(N)NC(=N)NCCc1ccccc1 [Phenformin] (partner 250 µM)
How it was run: as §1

Cell Line	relative viability ([1]; first compound 0.08 µM)	relative viability ([1]; first compound 0.253 µM)	relative viability ([1]; first compound 2.53 µM)	relative viability ([1]; first compound 8 µM)	relative viability ([2]; first compound 0.08 µM)	relative viability ([2]; first compound 0.253 µM)	relative viability ([2]; first compound 2.53 µM)	relative viability ([2]; first compound 8 µM)	relative viability ([3]; first compound 0.08 µM)	relative viability ([3]; first compound 0.253 µM)	relative viability ([3]; first compound 2.53 µM)	relative viability ([3]; first compound 8 µM)	relative viability ([4]; first compound 0.08 µM)	relative viability ([4]; first compound 0.253 µM)	relative viability ([4]; first compound 2.53 µM)	relative viability ([4]; first compound 8 µM)	relative viability ([5]; first compound 0.08 µM)	relative viability ([5]; first compound 0.253 µM)	relative viability ([5]; first compound 2.53 µM)	relative viability ([5]; first compound 8 µM)
201T	1.1	0.955	1.03	0.988	0.756	0.583	0.672	0.63	1.17	0.966	1.01	0.935	0.604	0.421	0.533	0.342	0.47	0.424	0.51	0.452
A549	0.863	0.937	1.01	0.385	–	0.609	1	0.225	0.717	0.914	0.849	0.546	–	–	–	–	0.183	0.347	0.922	0.132
A-427	1.21	1.28	1.05	0.878	0.732	0.69	0.635	0.512	1.07	1.18	1.08	0.975	0.71	0.668	0.672	0.324	0.322	0.35	0.278	0.229
ABC-1	0.92	1.64	1.18	1.05	0.638	0.721	0.738	0.264	0.893	1.27	1.13	0.715	0.585	0.476	0.468	0.203	0.248	0.242	0.248	0.216
BEN	–	0.968	0.918	0.362	–	0.549	0.618	0.381	–	1.37	1.06	0.806	0.307	0.319	0.307	0.266	0.239	0.26	0.295	0.275
CAL-12T	0.616	0.574	0.716	0.496	0.498	0.367	0.605	0.326	0.859	1.44	1.57	1.06	0.358	0.286	0.509	0.139	0.557	0.474	0.563	0.407
COR-L23	0.846	1.47	0.901	0.508	0.796	0.892	0.997	0.414	0.743	1.01	0.745	0.601	0.505	0.45	0.595	0.354	0.432	0.569	0.583	0.387
COR-L 105	0.451	0.318	0.318	0.367	0.413	0.354	0.388	0.29	0.866	0.991	0.918	0.74	0.363	0.277	0.302	0.239	0.559	0.443	0.517	0.366
ChaGo-K-1	–	–	–	–	1.27	0.851	0.718	0.454	–	–	–	–	0.555	0.662	0.534	0.341	0.456	0.56	0.466	0.453
EKVX	0.209	0.133	0.194	0.153	0.396	0.329	0.437	0.39	0.728	0.845	1.02	0.692	0.42	0.429	0.358	0.389	0.23	0.224	0.239	0.203
EMC-BAC-2	0.852	0.956	0.943	0.625	0.477	0.608	0.542	0.433	0.683	0.732	0.928	0.676	0.299	0.366	0.3	0.272	0.501	0.596	0.548	0.458
EPLC-272H	0.925	1.03	0.981	0.774	0.338	0.365	0.294	0.276	0.947	1.02	1.04	0.792	0.32	0.452	0.274	0.206	0.276	0.299	0.276	0.25
H3255	0.266	0.241	0.259	0.224	0.422	0.527	0.492	0.391	0.664	0.788	0.631	0.532	0.366	0.343	0.511	0.341	0.383	0.339	0.401	0.362
HARA	0.693	0.737	0.811	0.625	0.366	0.36	0.3	0.2	0.811	0.775	0.705	0.471	0.246	0.283	0.248	0.104	0.329	0.477	0.543	0.148
HCC-15	0.625	1.01	1.02	0.685	0.547	0.866	0.861	0.524	0.816	1.09	0.884	0.744	0.59	0.535	0.581	0.447	0.401	0.522	0.685	0.42
HCC-44	0.946	0.945	1.28	0.81	0.728	0.569	0.503	0.398	0.775	0.746	0.99	0.549	–	–	–	–	0.314	0.202	0.331	0.16
HCC-78	0.881	0.703	1.02	0.21	0.251	0.185	0.193	0.182	0.385	0.276	0.393	0.212	0.336	0.459	0.373	0.344	0.769	0.664	0.636	0.652
HCC-366	–	1.24	1.7	0.83	0.117	0.0961	0.134	0.107	–	0.394	0.507	0.172	0.513	0.562	0.737	0.223	0.595	0.661	0.639	0.277

Cell Line	relative viability ([1]; first compound 0.08 µM)	relative viability ([1]; first compound 0.253 µM)	relative viability ([1]; first compound 2.53 µM)	relative viability ([1]; first compound 8 µM)	relative viability ([2]; first compound 0.08 µM)	relative viability ([2]; first compound 0.253 µM)	relative viability ([2]; first compound 2.53 µM)	relative viability ([2]; first compound 8 µM)	relative viability ([3]; first compound 0.08 µM)	relative viability ([3]; first compound 0.253 µM)	relative viability ([3]; first compound 2.53 µM)	relative viability ([3]; first compound 8 µM)	relative viability ([4]; first compound 0.08 µM)	relative viability ([4]; first compound 0.253 µM)	relative viability ([4]; first compound 2.53 µM)	relative viability ([4]; first compound 8 µM)	relative viability ([5]; first compound 0.08 µM)	relative viability ([5]; first compound 0.253 µM)	relative viability ([5]; first compound 2.53 µM)	relative viability ([5]; first compound 8 µM)
HCC-827	0.218	0.204	0.197	0.194	1.08	0.982	1.03	0.986	0.959	0.985	0.962	0.755	0.279	0.302	0.233	0.275	0.417	0.385	0.479	0.407
HOP-62	0.94	1.23	0.985	1	0.626	0.741	0.968	0.428	1.1	1.22	1.22	0.866	0.52	0.669	0.675	0.501	0.525	0.835	0.849	0.741
IA-LM	0.837	0.831	1.31	0.572	0.27	0.309	0.767	0.349	0.765	0.746	0.773	0.778	–	–	–	–	–	–	–	–
LC-2-ad	0.952	1.21	0.997	0.673	0.313	0.373	0.368	0.187	0.815	0.945	0.84	0.53	0.74	0.571	0.523	0.329	0.651	0.678	0.645	0.553
LCLC-97TM1	1.06	–	1.12	0.425	0.176	–	0.182	0.156	0.282	–	0.217	0.206	0.753	0.955	0.814	0.63	0.418	0.494	0.488	0.407
LCLC-103H	–	–	–	–	0.617	0.581	0.614	0.537	1	0.994	0.92	0.861	0.438	0.464	0.438	0.26	0.319	0.341	0.359	0.31
LK-2	0.972	1.26	1.02	0.862	0.683	0.679	0.725	0.314	0.905	1.51	1.32	0.673	0.248	0.315	0.288	0.417	0.505	0.398	0.341	0.233
LOU-NH91	0.761	0.575	0.886	0.692	0.513	0.422	0.568	0.489	0.716	0.647	0.756	0.64	0.504	0.532	0.604	0.458	0.667	0.614	0.8	0.628
LU99A	1.16	1.21	0.797	0.89	0.302	0.366	0.32	0.308	0.525	0.636	0.557	0.39	0.479	0.59	0.419	0.406	0.91	0.88	0.774	0.676
LXF-289	0.845	0.934	1	0.737	0.724	0.891	0.825	0.559	0.974	1.11	1.11	0.705	0.238	0.197	0.229	0.141	0.515	0.568	0.597	0.504
NCI-H23	1.05	1.1	1.31	0.883	0.414	0.559	0.58	0.446	0.592	0.702	1.01	0.596	0.64	0.84	0.818	0.439	0.705	0.889	0.88	0.609
NCI-H322M	0.605	0.633	0.61	0.566	0.496	0.423	0.531	0.51	0.873	1.06	0.836	0.686	0.256	0.25	0.26	0.204	0.753	0.746	0.838	0.604
NCI-H441	–	–	–	–	0.356	0.53	0.591	0.3	–	1.18	0.772	0.341	0.758	0.639	0.617	0.458	0.828	1.06	0.921	0.779
NCI-H522	–	–	–	–	–	–	–	–	–	–	–	–	0.825	0.949	0.846	0.695	0.666	0.704	0.741	0.636
NCI-H1650	0.758	0.754	0.952	0.482	0.527	0.537	0.582	0.239	–	–	–	–	0.399	0.262	0.297	0.24	0.468	0.417	0.571	0.25
NCI-H1703	1.06	1.41	1.03	0.265	0.257	0.307	0.211	0.247	0.298	0.319	0.304	0.227	–	–	–	–	–	–	–	–
SW 900	–	–	–	–	–	–	–	–	–	–	–	–	0.609	0.568	0.65	0.48	0.547	0.474	0.656	0.554
